Measurements reported in patent publication US10294202B2, “Pyrrolidinones as herbicides” (FMC Corporation, priority 2013, dated 2019).

Experiments:
sprangletop, Brdd. = assay: Test F flood (paddy) test; assay type: in vivo, Leptochloa fascicularis; settings: 21 d, scale 0-100
Source text: (§1) Three plastic pots (ca. 16-cm diameter) per rate were partially filled with sterilized Tama silt loam soil comprising a 35:50:15 ratio of sand, silt and clay and 2.6% organic matter. Separate plantings for each of the three pots were as follows. Seeds from the U.S. of monochoria (Monochoria vaginalis), sedge, umbrella (small-flower umbrella sedge, Cyperus difformis), bulrush, […] bulrush, Scirpus juncoides), and […] (purple […] coccinea), were planted into one 16-cm pot for each rate. Seeds from the U.S. of flatsedge, rice (rice flatsedge, Cyperus iria), sprangletop, Brdd. (bearded sprangletop, Leptochloa fascicularis), one stand of 9 or 10 water seeded rice seedlings (Rice, W.S. Jap, Oryza sativa cv. 'Japonica-[…]' or Rice, W.S. Ind, 'Indica'), and two stands of 3 or 4 seedlings of rice, transplanted (transplanted rice, Oryza sativa cv. 'Japonica-[…]') were planted into one 16-cm pot for each rate. Seeds from the U.S. of barnyardgrass (Echinochloa crus-galli), […] (common […], Alisma plantago-aquatica), and watergrass, late (late watergrass, Echinochloa oryzicola) were planted into one 16-cm pot for each rate. Plantings were sequential so that crop and weed species were at the 2.0 to 2.5-leaf stage at time of treatment. Potted plants were grown in a greenhouse with day/night temperature settings of 30/27° C., and supplemental balanced lighting was provided to maintain a 16-h photoperiod. Test pots were maintained in the greenhouse until test completion. At time of treatment, test pots were flooded to 3 cm above the soil surface, treated by application of test compounds directly to the paddy water, and then maintained at that water depth for the duration of the test. Effects of treatments on rice and weeds were visually evaluated by comparison to untreated controls after 21 d. Plant response ratings, summarized in Table F, are based on a scale of 0 to 100 where 0 is no effect and 100 is complete control. A dash (-) response means no test result.

watergrass, late = assay: Test F flood (paddy) test; assay type: in vivo, Echinochloa oryzicola; settings: 21 d, scale 0-100
Source text: as §1

oilseed rape = assay: Test D pre-/postemergence herbicide test; assay type: in vivo, Brassica napus; settings: for Plant response rating: Postemergence, Oilseed Rape, scale 0 to 100; for Plant response rating, Oilseed Rape: Preemergence, scale 0 to 100 (0 no effect, 100 complete control)
Source text: (§2) Seeds of plant species selected from bluegrass (annual bluegrass, Poa annua), blackgrass (Alopecurus myosuroides), canarygrass (littleseed canarygrass, Phalaris minor), chickweed (common chickweed, Stellaria media), galium (catchweed bedstraw, Galium aparine), bromegrass, downy (downy bromegrass, Bromus tectorum), field poppy (Papaver rhoeas), field violet (Viola arvensis), foxtail, green (green foxtail, Setaria viridis), deadnettle (henbit deadnettle, Lamium amplexicaule), ryegrass, Italian (Italian ryegrass, Lolium multiflorum), kochia (Kochia scoparia), lambsquarters (Chenopodium album), oilseed rape (Brassica napus), pigweed (Amaranthus retroflexus), chamomile (scentless chamomile, Matricaria inodora), Russian thistle (Salsola kali), speedwell (bird's-eye speedwell, Veronica persica), barley, spring (spring barley, Hordeum vulgare), wheat, spring (spring wheat, Triticum aestivum), buckwheat, wild (wild buckwheat, Polygonum convolvulus), mustard, wild (wild mustard, Sinapis arvensis), oat, wild (wild oat, Avena fatua), radish, wild (wild radish, Raphanus raphanistrum), […]), barley, winter (winter barley, Hordeum vulgare), and wheat, winter (winter wheat, Triticum aestivum) were planted into a silt loam soil and treated preemergence with test chemicals formulated in a non-phytotoxic solvent mixture which included a surfactant. At the same time, these species were planted in pots containing Redi-Earth® planting medium (Scotts Company, 14111 Scottslawn Road, Marysville, Ohio 43041) comprising spaghnum peat moss, vermiculite, wetting agent and starter nutrients and treated with postemergence applications of the test chemicals formulated in the same manner. Plants ranged in height from 2 to 18 cm (1- to 4-leaf stage). Treated plants and controls were maintained in a controlled growth environment for 7 to 21 days after which time all species were compared to controls and visually evaluated. Plant response ratings, summarized in Table D, are based on a scale of 0 to 100 where 0 is no effect and 100 is complete control. A dash (-) response means no test result.

mustard, wild = assay: Test D pre-/postemergence herbicide test; assay type: in vivo, Sinapis arvensis; settings: for Plant response rating: Mustard, Wild, scale 0 to 100; for Plant response rating, Mustard, Wild: scale 0 to 100 (0 no effect, 100 complete control)
Source text: as §2

windgrass = assay: Test D pre-/postemergence herbicide test; assay type: in vivo, Apera spica-venti; settings: for Plant response rating: Postemergence, Windgrass, scale 0 to 100; for Plant response rating, Windgrass: Preemergence, scale 0 to 100 (0 no effect, 100 complete control)
Source text: as §2

foxtail, green = assay: Test D pre-/postemergence herbicide test; assay type: in vivo, Setaria viridis; settings: for Plant response rating: Foxtail, Green, scale 0 to 100; for Plant response rating, Foxtail, Green: scale 0 to 100 (0 no effect, 100 complete control)
Source text: as §2

deadnettle = assay: Test D pre-/postemergence herbicide test; assay type: in vivo, Lamium amplexicaule; settings: for Plant response rating: Deadnettle, scale 0 to 100; for Plant response rating, Deadnettle: scale 0 to 100 (0 no effect, 100 complete control)
Source text: as §2

O=C1NCC(c2cccc(C(F)(F)F)c2)C1C(=O)Nc1ccccc1F (racemic) [Compound 3]
85: Plant response rating, Sprangletop, Brdd. (sprangletop, Brdd.; 500 g ai/ha) | Plant response rating, Watergrass, Late (watergrass, late; 500 g ai/ha)
80: Plant response rating, Sprangletop, Brdd. (sprangletop, Brdd.; 250 g ai/ha) | Plant response rating, Watergrass, Late (watergrass, late; 250 g ai/ha)

O=C1NCC(c2ccc(F)c(F)c2)C1C(=O)Nc1cccc(F)c1 (racemic) [Compound 12]
50: Plant response rating (deadnettle; Preemergence, 250 g ai/ha)
40: Plant response rating (mustard, wild; Postemergence, 62 g ai/ha)
0: Plant response rating, Oilseed Rape (oilseed rape; 31 g ai/ha) | Plant response rating, Oilseed Rape (oilseed rape; 16 g ai/ha) | Plant response rating (mustard, wild; Postemergence, 16 g ai/ha) | Plant response rating, Mustard, Wild (mustard, wild; Preemergence, 31 g ai/ha) | Plant response rating, Mustard, Wild (mustard, wild; Preemergence, 62 g ai/ha) | Plant response rating, Mustard, Wild (mustard, wild; Preemergence, 16 g ai/ha) | Plant response rating (windgrass; 16 g ai/ha) | Plant response rating (windgrass; 31 g ai/ha) | Plant response rating (windgrass; 62 g ai/ha) | Plant response rating (windgrass; 125 g ai/ha) | Plant response rating, Windgrass (windgrass; 31 g ai/ha) | Plant response rating, Windgrass (windgrass; 62 g ai/ha) | Plant response rating, Windgrass (windgrass; 125 g ai/ha) | Plant response rating, Windgrass (windgrass; 250 g ai/ha) | Plant response rating, Windgrass (windgrass; 16 g ai/ha) | Plant response rating (foxtail, green; Postemergence, 16 g ai/ha) | Plant response rating (foxtail, green; Postemergence, 31 g ai/ha) | Plant response rating, Foxtail, Green (foxtail, green; Preemergence, 31 g ai/ha) | Plant response rating, Foxtail, Green (foxtail, green; Preemergence, 62 g ai/ha) | Plant response rating, Foxtail, Green (foxtail, green; Preemergence, 16 g ai/ha) | Plant response rating (foxtail, green; Preemergence, 125 g ai/ha) | Plant response rating (foxtail, green; Preemergence, 250 g ai/ha) | Plant response rating (deadnettle; Postemergence, 16 g ai/ha) | Plant response rating (deadnettle; Postemergence, 31 g ai/ha) | Plant response rating, Deadnettle (deadnettle; Preemergence, 31 g ai/ha) | Plant response rating, Deadnettle (deadnettle; Preemergence, 62 g ai/ha) | Plant response rating, Deadnettle (deadnettle; Preemergence, 16 g ai/ha) | Plant response rating (deadnettle; Preemergence, 125 g ai/ha)
15: Plant response rating (deadnettle; Postemergence, 125 g ai/ha)
100: Plant response rating (mustard, wild; Postemergence, 125 g ai/ha)
20: Plant response rating (oilseed rape; 125 g ai/ha) | Plant response rating, Oilseed Rape (oilseed rape; 250 g ai/ha) | Plant response rating (mustard, wild; Preemergence, 125 g ai/ha) | Plant response rating (foxtail, green; Postemergence, 125 g ai/ha) | Plant response rating (deadnettle; Postemergence, 250 g ai/ha)
25: Plant response rating (oilseed rape; 250 g ai/ha) | Plant response rating (foxtail, green; Postemergence, 250 g ai/ha)
70: Plant response rating (mustard, wild; Preemergence, 250 g ai/ha)
10: Plant response rating (oilseed rape; 16 g ai/ha) | Plant response rating (oilseed rape; 31 g ai/ha) | Plant response rating (oilseed rape; 62 g ai/ha) | Plant response rating, Oilseed Rape (oilseed rape; 62 g ai/ha) | Plant response rating, Oilseed Rape (oilseed rape; 125 g ai/ha) | Plant response rating (mustard, wild; Postemergence, 31 g ai/ha) | Plant response rating (foxtail, green; Postemergence, 62 g ai/ha) | Plant response rating (deadnettle; Postemergence, 62 g ai/ha)
5: Plant response rating (windgrass; 250 g ai/ha)

O=C1NCC(c2cc(F)c(F)c(F)c2)C1C(=O)Nc1ccccc1C(F)(F)F (racemic) [Compound 33]
0: Plant response rating (oilseed rape; 16 g ai/ha) | Plant response rating (oilseed rape; 31 g ai/ha) | Plant response rating (mustard, wild; Postemergence, 16 g ai/ha) | Plant response rating (mustard, wild; Postemergence, 31 g ai/ha) | Plant response rating (mustard, wild; Postemergence, 62 g ai/ha) | Plant response rating (mustard, wild; Postemergence, 125 g ai/ha) | Plant response rating (mustard, wild; Postemergence, 250 g ai/ha) | Plant response rating (windgrass; 16 g ai/ha) | Plant response rating (windgrass; 31 g ai/ha) | Plant response rating (windgrass; 62 g ai/ha) | Plant response rating (windgrass; 125 g ai/ha) | Plant response rating (windgrass; 250 g ai/ha) | Plant response rating (foxtail, green; Postemergence, 16 g ai/ha) | Plant response rating (foxtail, green; Postemergence, 31 g ai/ha) | Plant response rating (foxtail, green; Postemergence, 62 g ai/ha) | Plant response rating (foxtail, green; Postemergence, 125 g ai/ha) | Plant response rating (foxtail, green; Postemergence, 250 g ai/ha) | Plant response rating (deadnettle; Postemergence, 16 g ai/ha) | Plant response rating (deadnettle; Postemergence, 31 g ai/ha) | Plant response rating (deadnettle; Postemergence, 62 g ai/ha) | Plant response rating (deadnettle; Postemergence, 125 g ai/ha)
10: Plant response rating (oilseed rape; 62 g ai/ha) | Plant response rating (deadnettle; Postemergence, 250 g ai/ha)
30: Plant response rating (oilseed rape; 250 g ai/ha)
20: Plant response rating (oilseed rape; 125 g ai/ha)
